Test system: Human dermal papilla cells
Test: UVB stress protection of dermal papilla cells, cell viability by Neutral Red Uptake staining
Type: cell-based
Details: UVB 0.432 J/cm^2; Table 1
Procedure: Human dermal papilla cells were plated into a 96 well flat bottomed clear micro plate at a seeding density of 5000 cells per well. The 24 hour monolayer of cells was exposed to UVB dosages ranging from 0.0072 J/cm^2 to 1.0 J/cm^2 (stress signal) with or without sample (protective formulations) treatment. After exposure, the cells were incubated in a CO2 incubator for 48 hours and developed by NRU (Neutral Red Uptake) staining techniques to analyze cell viability. The absorbance due to viable cells is read at 492 nm in a micro plate reader.

For C[Se]CC[C@H](NC(=O)CC[C@H](N)C(=O)O)C(=O)O [γ-L-glutamyl-L-Selenomethionine], which “Protection of dermal papilla cells, UVB irradiation level 0.432 J/cm^2” value is on record?
The value was “No protection”.

From patent US9498423B2, “Synergistic selenopeptide formulations for the protection of dermal papilla cells” (Sami Labs Limited, priority 2012, dated 2016)
